Results from patent US11571480B2, “Multi-ligand drug conjugates and uses thereof” (priority 2015, dated 2023).
Square brackets hold non-standard residues; d marks the D form. Peptide text beside a SMILES is read from it. * marks the point of attachment. Dolaproine = CO[C@@H]([C@@H]1CCCN1)[C@@H](C)C(=O)O; Dil = CC[C@H](C)[C@H](NC)[C@@H](CC(=O)O)OC; X1 = C[C@@H](N*)[C@@H](O)c1ccccc1; NMeV = CN[C@H](C(=O)O)C(C)C

What was measured:
[1] = system: breast cancer cell line HCC1954; assay: Cytotoxicity test of conjugate LDC10H; type: cell-based, human; conditions: HCC1954, incubated 15-30 min, then 2-3 days
Description: (§1) Culture medium: RPMI 1640 Medium, no folic acid
(§2) 1) human lung cancer cell H1299, ovarian cancer cell SKOV3, breast cancer cell line HCC1954, and human lung cancer cell H460 were incubated at 37° C., 5% CO2 in RPMI 1640 medium containing 10% fetal bovine serum, the cells were passaged every 2-3 days.
(§3) 2) human lung cancer cell H1299, ovarian cancer cell SKOV3, breast cancer cell line HCC1954, and human lung cancer cell H460 were plated at 1×10^3 cells per well (96-well plate) and incubated for 8-12 h at 37° C., 5% CO2.
(§4) 3) Stock solutions of LDC conjugates or control were prepared in PBS solution. 100 μL/well of serially diluted LDC conjugates or control was added to the cells in the plate and incubated for 15-30 min at 37° C., 5% CO2. The culture medium in the wells was then removed by aspiration and the cells were incubated in fresh culture medium without conjugates (150 μL/well) for 2-3 days at 37° C., 5% CO2.
(§5) 4) CellTiter 96® Aqueous One Solution Cell Proliferation Assay (Promega) was added to each well to measure the amount of […] cells, and the plate was incubated in an incubator for 1 h at 37° C., 5% CO2.
(§6) 5) the plate was read at 490 nm on a microplate reader, and the cell survivals were compared for cells with or without the treatment of LDC conjugates. The LDC drug concentrations that are required for 50% cell death (IC50 values) were determined.

[2] = system: ovarian cancer cell SKOV3; assay: Cytotoxicity test of conjugate LDC10H; type: cell-based, human; conditions: SKOV3, incubated 15-30 min, then 2-3 days
Description: as §1, §2, §3, §4, §5, §6

[3] = system: human gastric cancer cell line GTL-16; assay: Cytotoxicity test of conjugate LDC13B; type: cell-based; conditions: GTL-16, incubated 15-30 min, then 2-3 days
Description: as §1
(§7) 1) human nasopharyngeal cancer cell line KB, human colon carcinoma HCT-116, human prostatic cancer cell PC-3, human gastric cancer cell line GTL-16, human endometrial cancer cell HEC-1A, and human gastric cancer cell N87 were incubated at 37° C., 5% CO2 in RPMI 1640 medium containing 10% fetal bovine serum, the cells were passaged every 2-3 days.
(§8) 2) human nasopharyngeal cancer cell line KB, human colon carcinoma HCT-116, human prostatic cancer cell PC-3, human gastric cancer cell line GTL-16, human endometrial cancer cell HEC-1A, and human gastric cancer cell N87 were plated at 1×10^3 cells per well (96-well plate) and incubated for 8-12 h at 37° C., 5% CO2.
as §4, §5, §6

[4] = system: human endometrial cancer cell HEC-1A; assay: Cytotoxicity test of conjugate LDC13B; type: cell-based; conditions: incubated 15-30 min, then 2-3 days
Description: as §1, §7, §8, §4, §5, §6

[5] = system: human prostatic cancer cell PC-3; assay: Cytotoxicity test of conjugate LDC13B; type: cell-based; conditions: PC-3, incubated 15-30 min, then 2-3 days
Description: as §1, §7, §8, §4, §5, §6

[6] = system: human colon carcinoma HCT-116; assay: Cytotoxicity test of conjugate LDC13B; type: cell-based; conditions: HCT-116, incubated 15-30 min, then 2-3 days
Description: as §1, §7, §8, §4, §5, §6

[7] = system: human nasopharyngeal cancer cell line KB; assay: Cytotoxicity test of conjugate LDC13B; type: cell-based; conditions: KB, incubated 15-30 min, then 2-3 days
Description: as §1, §7, §8, §4, §5, §6

[8] = system: human gastric cancer cell N87; assay: Cytotoxicity test of conjugate LDC13B; type: cell-based; conditions: N87, incubated 15-30 min, then 2-3 days
Description: as §1, §7, §8, §4, §5, §6

[9] = system: ovarian cancer cell SKOV3; assay: Cytotoxicity test of conjugate LDC11B; type: cell-based, human; conditions: SKOV3, incubated 15-30 min, then 2-3 days
Description: as §1
(§9) 1) human lung cancer cell H460, ovarian cancer cell SKOV3, human embryonic kidney cell 293A were incubated at 37° C., 5% CO2 in RPMI 1640 medium containing 10% fetal bovine serum, the cells were passaged every 2-3 days.
(§10) 2) human lung cancer cell H460, ovarian cancer cell SKOV3, human embryonic kidney cell 293A were plated at 1×10^3 cells per well (96-well plate) and incubated for 8-12 h at 37° C., 5% CO2.
as §4, §5
(§11) 5) The plate was read at 490 nm on a microplate reader, and the cell survivals were compared for cells with or without the treatment of LDC conjugates. The LDC drug concentrations that are required for 50% cell death (IC50 values) were determined.

[10] = system: human lung cancer cell H460; assay: Cytotoxicity test of conjugate LDC11B; type: cell-based; conditions: H460, incubated 15-30 min, then 2-3 days
Description: as §1, §9, §10, §4, §5, §11

[11] = system: human embryonic kidney cell 293A; assay: Cytotoxicity test of conjugate LDC11B; type: cell-based; conditions: incubated 15-30 min, then 2-3 days
Description: as §1, §9, §10, §4, §5, §11

melanoma cell line A375 = assay: Cytotoxicity test of conjugate LDC10BR; type: cell-based; conditions: A375, incubated 15-30 min, then 2-3 days
Description: as §1
(§12) 1) human nasopharyngeal cancer cell line KB, melanoma cell line A375, and human lung cancer cell H460 were incubated at 37° C., 5% CO2 in RPMI 1640 medium containing 10% fetal bovine serum, the cells were passaged every 2-3 days.
(§13) 2) human nasopharyngeal cancer cell line KB, melanoma cell line A375, and human lung cancer cell H460 were plated at 1×10^3 cells per well (96-well plate) and incubated for 8-12 h at 37° C., 5% CO2.
as §4, §5, §6

[12] = system: human lung cancer cell H460; assay: Cytotoxicity test of conjugate LDC10BR; type: cell-based; conditions: H460, incubated 15-30 min, then 2-3 days
Description: as §1, §12, §13, §4, §5, §6

[13] = system: human nasopharyngeal cancer cell line KB; assay: Cytotoxicity test of conjugate LDC10BR; type: cell-based; conditions: incubated 15-30 min, then 2-3 days
Description: as §1, §12, §13, §4, §5, §6

[14] = system: human gastric cancer cell line GTL-16; assay: Cytotoxicity test of conjugate LDC12B; type: cell-based; conditions: GTL-16, incubated 15-30 min, then 2-3 days
Description: as §1
(§14) 1) human endometrial cancer cell HEC-1A, human gastric cancer cell line GTL-16, human colon carcinoma HCT-116, human neuroblastoma cell line SH-SY5Y were incubated at 37° C., 5% CO2 in RPMI 1640 medium containing 10% fetal bovine serum, the cells were passaged every 2-3 days.
(§15) 2) human endometrial cancer cell HEC-1A, human gastric cancer cell line GTL-16, Human colon carcinoma HCT-116, human neuroblastoma cell line SH-SY5Y were plated at 1×10^3 cells per well (96-well plate) and incubated for 8-12 h at 37° C., 5% CO2.
as §4, §5, §6

[15] = system: human endometrial cancer cell HEC-1A; assay: Cytotoxicity test of conjugate LDC12B; type: cell-based; conditions: incubated 15-30 min, then 2-3 days
Description: as §1, §14, §15, §4, §5, §6

[16] = system: human neuroblastoma cell line SH-SY5Y; assay: Cytotoxicity test of conjugate LDC12B; type: cell-based; conditions: incubated 15-30 min, then 2-3 days
Description: as §1, §14, §15, §4, §5, §6

[17] = system: human colon carcinoma HCT-116; assay: Cytotoxicity test of conjugate LDC12B; type: cell-based; conditions: HCT-116, incubated 15-30 min, then 2-3 days
Description: as §1, §14, §15, §4, §5, §6

[18] = system: human lung cancer cell H1299; assay: Cytotoxicity test of conjugate LDC10H; type: cell-based; conditions: H1299, incubated 15-30 min, then 2-3 days
Description: as §1, §2, §3, §4, §5, §6

[19] = system: human lung cancer cell H460; assay: Cytotoxicity test of conjugate LDC10H; type: cell-based; conditions: H460, incubated 15-30 min, then 2-3 days
Description: as §1, §2, §3, §4, §5, §6

Q: For `CC[C@H](C)[C@@H]([C@@H](CC(=O)N1CCC[C@H]1[C@H](OC)[C@@H](C)C(=O)N[C@H](C)[C@@H](O)c1ccccc1)OC)N(C)C(=O)[C@@H](NC(=O)[C@@H](NC)C(C)C)C(C)C` [MMAE] (H-[NMeV]V[Dil][Dolaproine]-X1), which IC50 [1] is on record?
A: Its IC50 is 0.29 nM.

Q: And the IC50 [2]?
A: The IC50 was 0.49 nM.

Q: What about the IC50 [3] of the same compound?
A: The IC50 was 6.38 nM.

Q: And the IC50 [4]?
A: The IC50 was 8.74 nM.

Q: What about the IC50 [5] of the same compound?
A: The IC50 was 12.8 nM.

Q: What about the IC50 [6] of the same compound?
A: Its IC50 is 12.7 nM.

Q: What about the IC50 [7] of the same compound?
A: Its IC50 is 28.8 nM.

Q: And the IC50 [8]?
A: Its IC50 is 3.83 nM.

Q: What about the IC50 [9] of the same compound?
A: The IC50 was 0.44 nM.

Q: And the IC50 [10]?
A: The IC50 was 0.58 nM.

Q: And the IC50 [11]?
A: The IC50 was 0.86 nM.

Q: What about the IC50 (melanoma cell line A375) of the same compound?
A: The IC50 was 85 nM.

Q: And the IC50 [12]?
A: Its IC50 is 37 nM.

Q: What about the IC50 [13] of the same compound?
A: The IC50 was 20 nM.

Q: What about the IC50 [14] of the same compound?
A: Its IC50 is 6.38 nM.

Q: What about the IC50 [15] of the same compound?
A: Its IC50 is 8.74 nM.

Q: And the IC50 [16]?
A: The IC50 was 24 nM.

Q: What about the IC50 [17] of the same compound?
A: Its IC50 is 12.7 nM.

Q: And the IC50 [18]?
A: The IC50 was 0.71 nM.

Q: What about the IC50 [19] of the same compound?
A: The IC50 was 0.56 nM.
